Values quoted from earlier work as cited in patent publication US20200046643A1, “EXTENDED RELEASE FORMULATIONS OF CANNABINOIDS” (Glatt GmbH, priority 2018, published 2020).

Columns and labels:
[1] = after oral administration

**Q.** Which results are given for `C=C(C)[C@@H]1CCC(C)=C[C@H]1c1c(O)cc(CCCCC)cc1O` [CBD, cannabidiol]?
**A.** solubility in organic solvents (organic solvents): soluble in organic solvents; solubility in water: insoluble in water

**Q.** With `CCCCCc1cc(O)c2c(c1)OC(C)(C)[C@@H]1CCC(C)=C[C@@H]21` [THC, Δ9-tetrahydrocannabinol] as the compound, how does the duration of action [1] read?
**A.** Its duration of action is 2 to 4 h.

**Q.** What about the “duration of appetite-increasing action” value [1] of the same compound?
**A.** Its value is “up to 24 hours”.

**Q.** What about the “duration of psychoactive action” value [1] of the same compound?
**A.** The value was 4 to 6 h.

**Q.** With `CCCCCc1cc(O)c2c(c1)OC(C)(C)[C@@H]1CCC(C)=C[C@@H]21` [dronabinol] as the compound, how does the solubility in water read?
**A.** Its solubility in water is “insoluble in water”.
